In patent US20240024290A1, “PHARMACEUTICAL COMPOSITIONS COMPRISING CANNABINOID AGONIST” (ARTELO BIOSCIENCES LIMITED, priority 2020, published 2024):
Entries after “also recorded” stand apart in the source; their conditions may differ.

Experiment: Forced degradation study of the active substance (HPLC assay area %, sample observations)
Type: physicochemical
Description: HPLC Conditions • Instrument: Agilent 1100/1200 • Column: YMC Triart Phenyl, 4.6×150 mm. 3 μm particle size (ex-YMC P.N.TPH12S03-1546PTH) • Mobile Phase: A—10 mM Ammonium acetate pH 6.0 • B—Acetonitrile • Flow Rate: 1.0 ml·min-1 • Injection Volume: 5 μl • Detection: UV @ 220 nm • Column Temp: 30° C. • Post Run: 4 minutes
• Diluent: Acetonitrile:deionised water (1:1) • Standard Solution: Make up a solution of 0.2 mg/ml. This is to be made up fresh prior to use at T=3 and T=7 days.
Accurately weigh […] of the active substance into a 100 mL volumetric flask and dissolve in 50 mL of diluent. Dilute the resulting solution to volume with diluent and mix well.
Table 1 below details the different study tests performed. All solution samples are prepared and stored in sealed vials and heated samples are cooled to ambient prior to sampling to prevent evaporation. Analysis took place on days 3 and 7 after stressing initiation for solutions described for Tests 1-6 and once exposure was complete for samples described in Tests 7-10. Due to the low levels of degradation observed at 7 days, Tests 3, 4 and 5 were heated to 80° C. for a further 4 days and analysed, and Test 6 was analysed after a further 6 days.
The photostability samples were exposed to a total of 1.92 million lux hours and an integrated near-UV energy of 374.6 Whm^−2.

CCS(=O)(=O)Nc1ccc2c(c1)nc(C(C)(C)C)n2CC1CCC(F)(F)CC1 [Compound I, N-(2-(tert-butyl)-1-((4,4-difluorocyclohexyl)methyl)-1H-benzimidazol-5-yl)ethanesulfonamide]
Sample observations (Test 1 Control (solution, ambient temperature), over study period, listed as active substance): Clear colourless solution; also recorded: No change over study period | Assay of active substance (area %) (Test 1 solution control, 0 days): 99.40 area % | Assay of active substance (area %) (Test 1 solution control, 3 days): 99.42 area % | Assay of active substance (area %) (Test 1 solution control, 7 days): 99.30 area % | Assay of active substance (area %) (Test 1 solution control, 11 days): 99.39 area % | Sample observations (Test 2 Solid state 100° C., over study period, listed as active substance): orange solid over study period. | Assay of active substance (area %) (Test 2 solid state at 100° C., 3 days): 99.43 area % | Assay of active substance (area %) (Test 2 solid state at 100° C., 7 days): 99.40 area % | Sample observations (Test 3 Acid 60° C., over study period, listed as active substance): Clear colourless solution; also recorded: No change over study period | Sample observations (Test 3 Acid (1M, ambient), over study period, listed as active substance): No change over study period; also recorded: Clear colourless solution | Assay of active substance (area %) (Test 3 acid (1M) ambient temperature, 3 days): 99.40 area % | Assay of active substance (area %) (Test 3 acid (1M) ambient temperature, 7 days): 99.41 area % | Assay of active substance (area %) (Test 3 acid (1M) at 60° C. until day 7, 80° C. until day 11, 11 days): 98.87 area % | Assay of active substance (area %) (Test 3 acid (1M) at 60° C., 3 days): 99.37 area % | Assay of active substance (area %) (Test 3 acid (1M) at 60° C., 7 days): 99.35 area % | Sample observations (Test 4 Base 40° C. (so in the source), over study period, listed as active substance): Clear colourless solution; also recorded: No change over study period | Sample observations (Test 4 Base (0.5M, ambient), over study period, listed as active substance): Clear colourless solution; also recorded: No change over study period | Assay of active substance (area %) (Test 4 base (0.5M) ambient temperature, 3 days): 99.40 area % | Assay of active substance (area %) (Test 4 base (0.5M) ambient temperature, 7 days): 99.37 area % | Assay of active substance (area %) (Test 4 base (0.5M) at 60° C. until day 7, 80° C. until day 11, 11 days): 99.16 area % | Assay of active substance (area %) (Test 4 base (0.5M) at 60° C., 3 days): 99.34 area % | Assay of active substance (area %) (Test 4 base (0.5M) at 60° C., 7 days): 99.32 area % | Sample observations (Test 5 Heat 60° C. (solution), over study period, listed as active substance): Clear colourless solution; also recorded: No change over study period | Assay of active substance (area %) (Test 5 solution at 60° C. until day 7, 80° C. until day 11, 11 days): 98.00 area % | Assay of active substance (area %) (Test 5 solution at 60° C., 3 days): 99.13 area % | Assay of active substance (area %) (Test 5 solution at 60° C., 7 days): 99.34 area % | Sample observations (Test 6 Peroxide (1.5%), over study period, listed as active substance): Clear colourless solution; also recorded: No change over study period | Assay of active substance (area %) (Test 6 peroxide (1.5%), 3 days): 98.50 area % | Assay of active substance (area %) (Test 6 peroxide (1.5%), 7 days): 97.75 area % | Assay of active substance (area %) (Test 6 peroxide (1.5%), 13 days): 96.58 area % | Sample observations (Test 7 Photostability (Solution Control), listed as active substance): Clear colourless solution; also recorded: No change over study period | Assay of active substance (area %) (Test 7 photocontrol solution): 99.40 area % | Assay of active substance (area %) (Test 8 photo treated solution (1.92 million lux hours, 374.6 Whm^-2 near-UV)): 74.53 area % | Sample observations (Test 9 Photostability (Solid Control)): Off white solid. No change over study period. | Assay of active substance (area %) (Test 9 photocontrol solid): 99.40 area % | Sample observations (Test 10 Photostability (Solid Treated), listed as active substance): orange solid over study period. | Assay of active substance (area %) (Test 10 phototreated solid (1.92 million lux hours, 374.6 Whm^-2 near-UV)): 99.31 area % | Forced degradation outcome (as a solution under photostability conditions): Major degradation | Forced degradation outcome (peroxide conditions, 1M acid and 0.5M base extended to 80° C., solution heated to 80° C.): slight degradation | Forced degradation outcome (solution at room temperature, solid at 100° C., 1M acid and 0.5M base at room temperature and 60° C., solution at 60° C., photostability as a solid): stable to degradation
